The test system of assay [1] is Bullous Pemphigoid Antigen 1 (BPAG-1). Kind of assay: cDNA-macroarrays confirmed by quantitative RT-PCR on messenger RNAs of epidermal cells: BPAG-1 expression. It counts as cell-based.
For assay [2], the system named is JL1-R1 receptor. Kind of assay: cDNA-macroarrays confirmed by quantitative RT-PCR on messenger RNAs of epidermal cells: JL1-R1 receptor expression. It counts as cell-based.
In assay [3] the test system is Cellular Retinoic Acid Binding Protein (CRAB-P-2). Put plainly: cDNA-macroarrays confirmed by quantitative RT-PCR on messenger RNAs of epidermal cells: CRAB-P-2 expression. The assay is classed as cell-based.
Assay [4] concerns men with alopecia (proportion of hair in the telogen phase greater than 15%). Kind of assay: Anti-hair loss study by videotrichogram on volunteers with alopecia. The following applies: used as active ingredient in an anti-hair loss composition already containing Lentinus edodes extract, procyanidolic oligomers and Cananga odorata essential oil. It counts as in vivo, human. An excerpt:
The anti-ageing effect on the epidermis was confirmed in vivo in a study relating to the anti-hair loss properties of (2S,3R,4S)-4-hydroxyisoleucine carried out on volunteer subjects affected by alopecia, having a proportion of hair in the telogen phase greater than […] 15%. […] This anti-hair loss composition is described in application FR 2 776 184 of which the applicant is proprietor. It contains an aqueous extract of the mushroom Lentinus edodes rich in 1,3-β-D-1,6-β-D-glucan, procyanidolic oligomers extracted from grapeseed cuticle, and essential oil extracted from the flowers of Cananga odorata. […]
This study was carried out on a sample of 25 volunteers for each composition tested. The only people included in the study were men from 20 to 50 years old (average age of each group 37 years) with alopecia, that is to say having a proportion of hair in the telogen phase, determined by videotrichogram, greater than 15%.
The apparatus used is a videomicroscope equipped with a ×25 lens, which is mobile and optical fibre-based, linked to a computer system for image acquisition. The lens is placed directly over the zone to be studied, the image is digitized, recorded and analysed with the aid of a specific software (COUNTHAIR®) developed by the company DERMSCAN which makes it possible to count the hair strands and to measure their length. […]

The test system of assay [5] is TNS & CRAB-2 receptors. Put plainly: cDNA-macroarrays confirmed by quantitative RT-PCR on messenger RNAs of epidermal cells: TNS & CRAB-2 receptor expression. The assay is classed as cell-based.

For the compound `C[C@@H]([C@H](C)O)[C@H](N)C(=O)O` [(2S,3R,4S)-4-hydroxyisoleucine], the “expression of Bullous Pemphigoid Antigen 1 (BPAG-1)” value in assay [1] was “significant overexpression”. For the same compound, in assay [2], the “expression of the JL1-R1 receptor” value is given as “significant overexpression”. The “expression of Cellular Retinoic Acid Binding Protein (CRAB-P-2)” value in assay [3] is reported as “significant underexpression”. For the same compound, in assay [4], the anti-hair loss properties entry was “particularly effective”. Moreover, the “expression of the TNS & CRAB-2 receptors” value in assay [5] is “decrease in the expression”.

The record behind these values is US20050019357A1, “(2S,3R,4S)-4-hydroxyisoleucine-containing cosmetic compositions and methods of application” (Caster, priority 2003, published 2005).
